Several values for one entry are separate records, joined by “and”; a condition that tells them apart may be missing. Identical values can stand only once. Like-named read-outs stand apart in the source and are kept apart here.
Key:
[1] = system: TNF-α; assay: Cytokine induction in human whole blood ex vivo culture: TNF-α (ELISA); assay type: cell-based; details: 4 hr
Method: (§1) AGP compounds were solubilized in 10% EtOH-water and diluted to various concentrations. Fifty μl of each dilution were added to 450 μl of whole human blood. Controls were treated with culture media (RPMI). The reaction mixture was incubated at 37° C. for 4 hr with constant mixing on a rotator. Sterile PBS (1.5 ml) was added to the reaction mixture, the cells were centrifuged and the supernatents removed for cytokine testing. The concentration of TNF-α and IL-1β in each supernatent was determined using immunoassay ELISA kits from R&D Systems.

[2] = system: E.G7 (OVA) cells; details: s.c. 25 μg OVA in AGP preparation, spleen cells 21 days later
[3] = system: influenza A/HK/68; assay type: in vivo, ICR mice
[4] = system: tetanus toxoid; design: species or system BFD1 (C57B1/6X DBA/2) female mice; details: mouse, in vivo
[5] = system: tetanus toxoid; details: mouse, in vivo, sc
[6] = system: IL-1β; assay: Cytokine induction in human whole blood ex vivo culture: IL-1β (ELISA); assay type: cell-based; details: 4 hr
Method: as §1

[7] = system: ovalbumin; assay: Stimulation of antiovalbumin antibody production; assay type: in vivo, BDF1 female mice; details: 50 μg AGP + 50 μg ovalbumin; second immunization day 21; bled 14 days after second injection
Method: BDF1 female mice (8 per group) were immunized with 0.2 ml of emulsions containing 50 μg of the AGPs +50 μg of ovalbumin. A second immunization was administered 21 days post primary. Each mouse was bled 14 days after the second injection.

[8] = Fever response in rabbits (pyrogenicity); assay type: in vivo; details: for PYROGENICITY Total Rise ° C., 3 rabbits: 10 ug/kg, cumulative rise ≥1.5 degree in three rabbits is considered pyrogenic
Method: The AGP compounds were also evaluated for their tendency to induce a fever response in rabbits. Each compound was formulated in 10% (v/v) ethanol/water solution at 100 mg/ml, then diluted with D5W to the desired concentration. The material was injected at 3 ml/kg body weight into 3 rabbits. The rise in core temperature of the rabbits was recorded.

[9] = 25 μg AGP + 1 HAU FI-Flu in 0.2% TEoA, once, bled day 14, Table 11

## CCCCCCCCCCCC(=O)O[C@H](CCCCCCCCCCC)CC(=O)N[C@H]1[C@H](OC[C@H](NC(=O)C[C@@H](CCCCCCCCCCC)OC(=O)CCCCCCCCCCC)C(=O)O)O[C@H](CO)[C@@H](OP(=O)(O)O)[C@@H]1OC(=O)C[C@@H](CCCCCCCCCCC)OC(=O)CCCCCCCCCCC.CCN(CC)CC [B12, N-[(R)-3-Dodecanoyloxytetradecanoyl]-o-[2-Deoxy-4-O-phosphono-2-[(R)-3-dodecanoyloxytetradecanoylamino]-3-O-[(R)-3-dodecanoyloxytetradecanoyl]-β-D-glucopyranosyl]-L-serine Triethylammonium Salt]
[1]; Dosage 1000 ng/ml, Table 19
  TNF-α: 863 pg/mL
[1]; Dosage 5000 ng/ml, Table 19
  TNF-α: 957 pg/mL
[1]; Dosage 10,000 ng/ml, Table 19
  TNF-α: 1017 pg/mL
[2]; E:T 12.5:1
  % Cytotoxicity: 4%
[2]; E:T 25:1
  % Cytotoxicity: 7%
[2]; E:T 50:1
  % Cytotoxicity: 13%
[3]; [9]
  Titer^−1 IgG1: 200
  Titer^−1 IgG2a: 100
  Titer^−1 IgG2b: 200
  Titer^−1 Total IgG: 200
[3]; […], mortality 21 days, Table 11
  Percent Survival: 0%
[4]
  IgG1 T/C: 90.08 and 141.22 and 145.21 and 81.12 and 84.11
  IgG1 Titer: 165,486 and 259,429 and 266,743 and 149,029 and 154,514
  Total Ig T/C: 326.02 and 368.55 and 403.98 and 248.06 and 489.92
  Total Ig Titer: 42,057 and 47,543 and 52,114 and 32,000 and 63,200
[5]
  Anti-tetanus toxoid IgG2a T/C: 139.4
  Anti-tetanus toxoid IgG2a titer: 2370
  Anti-tetanus toxoid IgG2b T/C: 149
  Anti-tetanus toxoid IgG2b titer: 9840
  Anti-tetanus toxoid IgM T/C: 3.1
  Anti-tetanus toxoid IgM titer: 4800
[6]; Dosage 1000 ng/ml, Table 19
  IL-1β: 175 pg/mL
[6]; Dosage 5000 ng/ml, Table 19
  IL-1β: 153 pg/mL
[6]; Dosage 10,000 ng/ml, Table 19
  IL-1β: 135 pg/mL

## CCCCCCCCCCCCCC(=O)O[C@H](CCCCCCCCCCC)CC(=O)N[C@H]1[C@H](OCCN(CC(=O)O)C(=O)C[C@@H](CCCCCCCCCCC)OC(=O)CCCCCCCCCCCCC)O[C@H](CO)[C@@H](OP(=O)(O)O)[C@@H]1OC(=O)C[C@@H](CCCCCCCCCCC)OC(=O)CCCCCCCCCCCCC.CCN(CC)CC [B27, N-(Carboxymethyl)-N-[(R)-3-tetradecanoyloxytetradecanoyl]-2-aminoethyl 2-Deoxy-4-O-phophono-2-[(R)-3-tetradecanoyloxytetradecanoylamino]-3-O-[(R)-3-tetradecanoyloxytetradecanoyl]-β-d-glucopyranoside Triethylammonium Salt]
[7]
  Anti-ovalbumin IgG1 T/C: 0.8
  Anti-ovalbumin IgG1 Titer: 1275
  Anti-ovalbumin IgG2a T/C: 0.1
  Anti-ovalbumin IgG2a Titer: 38
  Anti-ovalbumin IgG2b T/C: 0.5
  Anti-ovalbumin IgG2b Titer: 113
  Anti-ovalbumin IgM T/C: 1.6
  Anti-ovalbumin IgM Titer: 300
  Anti-ovalbumin Total Ig T/C: 0.6
  Anti-ovalbumin Total Ig Titer: 138
[2]; E:T 12.5:1
  % Cytotoxicity: 5%
[2]; E:T 25:1
  % Cytotoxicity: 9%
[2]; E:T 50:1
  % Cytotoxicity: 17%
[4]
  IgG1 T/C Ratio: 1.6
  IgG1 Titer: 10,400
  IgG2a T/C Ratio: 12.0
  IgG2a Titer: 900
  IgG2b T/C Ratio: 11.6
  IgG2b Titer: 9,000
  IgM T/C Ratio: 4.0
  IgM Titer: 11,200
  Total Ig T/C Ratio: 3.2
  Total Ig Titer: 6,800
[8]
  PYROGENICITY Total Rise ° C., 3 rabbits: 3.9 °C

## N-[(R)-3-Octanoyloxytetradecanoyl]-O-[2-deoxy-4-O-phosphono-2-[(R)-3-octanoyloxytetradecanoylamino]-3-O-[(R)-3-octanoyloxytetradecanoyl]-β-D-glucopyranosyl]-L-serine Triethylammonium Salt [B17]
[1]; Dosage 1000 ng/ml, Table 19
  TNF-α: 2.6 pg/mL
[1]; Dosage 5000 ng/ml, Table 19
  TNF-α: 2.2 pg/mL
[1]; Dosage 10,000 ng/ml, Table 19
  TNF-α: 2.8 pg/mL
[2]; E:T 12.5:1
  % Cytotoxicity: 15%
[2]; E:T 25:1
  % Cytotoxicity: 26%
[2]; E:T 50:1
  % Cytotoxicity: 39%
[3]; mouse, in vivo
  Percent Survival: 40%
  Titer^−1 IgG1: 3200
  Titer^−1 IgG2a: 3200
  Titer^−1 IgG2b: 1600
  Titer^−1 Total IgG: 6400
[8]
  PYROGENICITY Total Rise ° C., 3 rabbits: 3.4 °C
[6]; Dosage 1000 ng/ml, Table 19
  IL-1β: 0.2 pg/mL
[6]; Dosage 5000 ng/ml, Table 19
  IL-1β: 0 pg/mL
[6]; Dosage 10,000 ng/ml, Table 19
  IL-1β: 0 pg/mL

## N-[(R)-3-Tetradecanoyloxytetradecanoyl]-O-[2-Deoxy-4-O-phosphono-2-[(R)-3-tetradecanoyloxytetradecanoylamino]-3-O-[(R)-3-tetradecanoyloxytetradecanoyl]-β-D-glucopyranosyl]-L-serine Triethylammonium Salt [B11]
[1]; Dosage 100 ng/ml, Table 17
  TNF-α: 127 pg/mL
[1]; Dosage 500 ng/ml, Table 17
  TNF-α: 125 pg/mL
[1]; Dosage 1000 ng/ml, Table 17
  TNF-α: 115 pg/mL
[1]; Dosage 5000 ng/ml, Table 17
  TNF-α: 139 pg/mL
[1]; Dosage 10,000 ng/ml, Table 17
  TNF-α: 181 pg/mL
[7]
  Anti-ovalbumin IgG1 T/C: 1.6
  Anti-ovalbumin IgG1 Titer: 2650
  Anti-ovalbumin IgG2a T/C: 1.7
  Anti-ovalbumin IgG2a Titer: 550
  Anti-ovalbumin IgG2b T/C: 1.6
  Anti-ovalbumin IgG2b Titer: 375
  Anti-ovalbumin IgM T/C: 1.3
  Anti-ovalbumin IgM Titer: 250
  Anti-ovalbumin Total Ig T/C: 0.7
  Anti-ovalbumin Total Ig Titer: 150
[2]; E:T 12.5:1
  % Cytotoxicity: 5%
[2]; E:T 25:1
  % Cytotoxicity: 8%
[2]; E:T 50:1
  % Cytotoxicity: 14%
[3]; mouse, in vivo
  Percent Survival: 30%
  Titer^−1 IgG1: 200
  Titer^−1 IgG2a: 1600
  Titer^−1 IgG2b: 400
  Titer^−1 Total IgG: 1600
[5]
  Anti-tetanus toxoid IgG1 T/C: 1.86
  Anti-tetanus toxoid IgG1 Titer: 400,000
  Anti-tetanus toxoid IgG2a Titer: 10,450
  Anti-tetanus toxoid IgG2a titer: 5900
  Anti-tetanus toxoid IgG2b Titer: 26,800
  Anti-tetanus toxoid IgG2b titer: 8400
  Anti-tetanus toxoid IgM T/C: 4.75 and 3.3
  Anti-tetanus toxoid IgM Titer: 7,600
  Anti-tetanus toxoid IgM titer: 5120
  Anti-tetanus toxoid Total IgG T/C: 3.6
  Anti-tetanus toxoid Total IgG Titer: 23,200
[8]; rabbits
  PY[…]: 0.3 to 0.6 µg/kg
[6]; Dosage 100 ng/ml, Table 17
  IL-1β: 59.8 pg/mL
[6]; Dosage 500 ng/ml, Table 17
  IL-1β: 55.8 pg/mL
[6]; Dosage 1000 ng/ml, Table 17
  IL-1β: 54.5 pg/mL
[6]; Dosage 5000 ng/ml, Table 17
  IL-1β: 61.7 pg/mL
[6]; Dosage 10,000 ng/ml, Table 17
  IL-1β: 62.3 pg/mL

From patent publication US7541020B2, “Aminoalkyl glucosaminide phosphate compounds and their use as adjuvants and immunoeffectors” (priority 1997, dated 2009)
